According to patent US12559529B2, “NPY2 receptor agonists” (Boehringer Ingelheim International GmbH, priority 2019, dated 2026):

How the values were obtained:
[1] = target: T1, Human Neuropeptide Y2 Receptor (Homo sapiens, UniProt P49146); test: Radioligand binding competition assay (RLB); details: Table 3; human 125I-PYY (1-36) 0.02 nM, Y2 receptor membranes; read-out: Ki
T1 construct: purchased CHEMICON HTS066M
T1 sequence (P49146 1-381): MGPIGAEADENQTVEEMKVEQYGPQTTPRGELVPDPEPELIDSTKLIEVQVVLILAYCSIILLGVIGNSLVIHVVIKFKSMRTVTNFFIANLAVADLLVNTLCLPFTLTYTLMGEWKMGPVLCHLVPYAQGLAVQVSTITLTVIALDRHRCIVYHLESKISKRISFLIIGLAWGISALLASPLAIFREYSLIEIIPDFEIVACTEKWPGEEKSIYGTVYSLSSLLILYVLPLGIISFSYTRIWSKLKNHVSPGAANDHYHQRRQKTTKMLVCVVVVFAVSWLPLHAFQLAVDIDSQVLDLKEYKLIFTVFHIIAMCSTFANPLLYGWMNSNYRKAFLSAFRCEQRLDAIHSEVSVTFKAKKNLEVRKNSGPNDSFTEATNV
Procedure, shortened: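 Filtration format; Y2R membrane prep 0.5 μg/well; buffer 50 mM HEPES/5 mM MgCl2/1 mM CaCl2/0.2% ovalbumin pH 7.4; 2 h RT, shaking. Harvest on PEI-soaked GF/C, ice-cold HEPES/500 mM NaCl washes, scintillation count. IC50 by nonlinear fit.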

normal NMRI mice = test: Effect on acute food intake in normal NMRI mice; type: in vivo; details: male NMRI mice, 10 nmol/kg subcutaneously once
Procedure, shortened: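 A single 10 nmol/kg s.c. peptide dose was given 1 h before lights-off to male NMRI mice fasted from 6 h before the night phase (n=7-8). Intake was recorded continuously by microchip-identified HM-2 feeding channels. Values are normalized to vehicle controls (50 mM phosphate buffer pH7 with 5% Mannitol).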

`CC(C)CC(=O)N[C@@H](C)C(=O)N1CCC[C@H]1C(=O)N[C@@H](CCC(=O)O)C(=O)N[C@@H](CCCCNC(=O)COCCOCCNC(=O)COCCOCCNC(=O)CC[C@H](NC(=O)CCCCCCCCCCCCCCCCC(=O)O)C(=O)O)C(=O)N1CCC[C@H]1C(=O)N[C@@H](CCC(=O)O)C(=O)N[C@@H](CCC(=O)O)C(=O)N[C@@H](CC(=O)O)C(=O)N[C@@H](C)C(=O)N[C@@H](CO)C(=O)N[C@@H](CCC(=O)O)C(=O)N[C@@H](CCC(=O)O)C(=O)N[C@@H](CCC(=O)O)C(=O)N[C@@H](CC(C)C)C(=O)N[C@@H](CCC(N)=O)C(=O)N[C@@H](CCCNC(=N)N)C(=O)N[C@@H](Cc1ccc(O)cc1)C(=O)N[C@@H](Cc1ccc(O)cc1)C(=O)N[C@H](C(=O)N[C@@H](CO)C(=O)N[C@@H](CC(C)C)C(=O)N[C@@H](CCCNC(=N)N)C(=O)N[C@@H](Cc1c[nH]cn1)C(=O)N[C@@H](Cc1ccc(O)cc1)C(=O)N[C@@H](Cc1ccc(O)cc1)C(=O)N[C@@H](CC(N)=O)C(=O)N[C@@H](Cc1c[nH]c2ccccc12)C(=O)N[C@@H](CC(C)C)C(=O)N[C@H](C(=O)N[C@@H](CCCNC(=N)N)C(=O)N[C@@H](CCC(N)=O)C(=O)N[C@@H](CCCNC(=N)N)C(=O)N[C@@H](Cc1ccc(O)cc1)C(N)=O)[C@@H](C)O)C(C)C` [Compound 176, N{alpha-4}-(3-methylbutanoyl)-N{epsilon-7}-[2-(2-{2-[2-(2-{2-[(4S)-4-carboxy-4-(17-carboxyheptadecanamido)butanamido]ethoxy}ethoxy)acetamido]ethoxy}ethoxy)acetamido]-[4A,7K,9E,14E,18Q,22V,28Y,30W,31L]hPYY (4-36)] was tested, and the Ki [1] was 3.05 nM and the “Acute Food Intake 24 h [% vehicle]” value (normal NMRI mice) was 52 % vehicle.

`CC(C)CC(=O)N[C@@H](C)C(=O)N1CCC[C@H]1C(=O)N[C@@H](CCC(=O)O)C(=O)N[C@@H](CCCCNC(=O)COCCOCCNC(=O)COCCOCCNC(=O)CC[C@H](NC(=O)CCCCCCCCCCCCCCCCC(=O)O)C(=O)O)C(=O)N1CCC[C@H]1C(=O)N[C@@H](CCC(=O)O)C(=O)N[C@@H](CCC(=O)O)C(=O)N[C@@H](CC(=O)O)C(=O)N[C@@H](C)C(=O)N[C@@H](CO)C(=O)N1CCC[C@H]1C(=O)N[C@@H](CCC(=O)O)C(=O)N[C@@H](CCC(=O)O)C(=O)N[C@H](C(=O)N[C@@H](CCC(N)=O)C(=O)N[C@@H](CCC(N)=O)C(=O)N[C@@H](Cc1ccc(O)cc1)C(=O)N[C@@H](Cc1ccc(O)cc1)C(=O)N[C@H](C(=O)N[C@@H](CO)C(=O)N[C@@H](CC(C)C)C(=O)N[C@@H](CCCNC(=N)N)C(=O)N[C@@H](Cc1c[nH]cn1)C(=O)N[C@@H](Cc1ccc(O)cc1)C(=O)N[C@@H](Cc1ccc(O)cc1)C(=O)N[C@@H](CC(N)=O)C(=O)N[C@@H](Cc1c[nH]c2ccccc12)C(=O)N[C@@H](CC(C)C)C(=O)N[C@H](C(=O)N[C@@H](CCCNC(=N)N)C(=O)N[C@@H](CCC(N)=O)C(=O)N[C@@H](CCCNC(=N)N)C(=O)N[C@@H](Cc1ccc(O)cc1)C(N)=O)[C@@H](C)O)C(C)C)[C@@H](C)O` [Compound 180, N{alpha-4}-(3-methylbutanoyl)-N{epsilon-7}-[2-(2-{2-[2-(2-{2-[(4S)-4-carboxy-4-(17-carboxyheptadecanamido)butanamido]ethoxy}ethoxy)acetamido]ethoxy}ethoxy)acetamido]-[4A,7K,9E,17T,18Q,19Q,22V,28Y,30W,31L]hPYY (4-36)] was tested, and the Ki [1] was 3.85 nM and the “Acute Food Intake 24 h [% vehicle]” value (normal NMRI mice) was 74 % vehicle.

`CC(C)CC(=O)N[C@@H](C)C(=O)N1CCC[C@H]1C(=O)N[C@@H](CCC(=O)O)C(=O)N[C@@H](CCCCNC(=O)COCCOCCNC(=O)COCCOCCNC(=O)CC[C@H](NC(=O)CCCCCCCCCCCCCCCCC(=O)O)C(=O)O)C(=O)N1CCC[C@H]1C(=O)N[C@@H](CCC(=O)O)C(=O)N[C@@H](CCC(=O)O)C(=O)N[C@@H](CCC(=O)O)C(=O)N[C@@H](C)C(=O)N[C@@H](CO)C(=O)N1CCC[C@H]1C(=O)N[C@@H](CCC(=O)O)C(=O)N[C@@H](CCC(=O)O)C(=O)N[C@@H](CC(C)C)C(=O)N[C@@H](CCC(N)=O)C(=O)N[C@@H](CCCNC(=N)N)C(=O)N[C@@H](Cc1ccc(O)cc1)C(=O)N[C@@H](Cc1ccc(O)cc1)C(=O)N[C@H](C(=O)N[C@@H](CCC(=O)O)C(=O)N[C@@H](CC(C)C)C(=O)N[C@@H](CCCNC(=N)N)C(=O)N[C@@H](Cc1c[nH]cn1)C(=O)N[C@@H](Cc1ccc(O)cc1)C(=O)N[C@@H](Cc1ccc(O)cc1)C(=O)N[C@@H](CC(N)=O)C(=O)N[C@@H](Cc1c[nH]c2ccccc12)C(=O)N[C@@H](CC(C)C)C(=O)N[C@H](C(=O)N[C@@H](CCCNC(=N)N)C(=O)N[C@@H](CCC(N)=O)C(=O)N[C@@H](CCCNC(=N)N)C(=O)N[C@@H](Cc1ccc(O)cc1)C(N)=O)[C@@H](C)O)C(C)C` [Compound 185, N{alpha-4}-(3-methylbutanoyl)-N{epsilon-7}-[2-(2-{2-[2-(2-{2-[(4S)-4-carboxy-4-(17-carboxyheptadecanamido)butanamido]ethoxy}ethoxy)acetamido]ethoxy}ethoxy)acetamido]-[4A,7K,9E,11E,18Q,22V,23E,28Y,30W,31L]hPYY (4-36)] was tested, and the Ki [1] was 3.58 nM and the “Acute Food Intake 24 h [% vehicle]” value (normal NMRI mice) was 39 % vehicle.

For `CC[C@H](C)[C@H](NC(=O)[C@H](CCC(=O)O)NC(=O)[C@H](CCC(=O)O)NC(=O)[C@H](CCC(=O)O)NC(=O)[C@H](CO)NC(=O)[C@H](C)NC(=O)[C@H](CC(=O)O)NC(=O)[C@H](CCC(=O)O)NC(=O)[C@H](CCC(=O)O)NC(=O)[C@@H]1CCCN1C(=O)[C@H](CCCCNC(=O)COCCOCCNC(=O)COCCOCCNC(=O)CC[C@H](NC(=O)CCCCCCCCCCCCCCCCC(=O)O)C(=O)O)NC(=O)[C@H](CCC(=O)O)NC(=O)[C@@H]1CCCN1C(=O)[C@H](C)NC(=O)CC(C)C)C(=O)N[C@@H](CCC(N)=O)C(=O)N[C@@H](CCCNC(=N)N)C(=O)N[C@@H](Cc1ccc(O)cc1)C(=O)N[C@@H](Cc1ccc(O)cc1)C(=O)N[C@H](C(=O)N[C@@H](CO)C(=O)N[C@@H](CC(C)C)C(=O)N[C@@H](CCCNC(=N)N)C(=O)N[C@@H](Cc1c[nH]cn1)C(=O)N[C@@H](Cc1ccc(O)cc1)C(=O)N[C@@H](Cc1ccc(O)cc1)C(=O)N[C@@H](CC(N)=O)C(=O)N[C@@H](Cc1c[nH]c2ccccc12)C(=O)N[C@@H](CC(C)C)C(=O)N[C@H](C(=O)N[C@@H](CCCNC(=N)N)C(=O)N[C@@H](CCC(N)=O)C(=O)N[C@@H](CCCNC(=N)N)C(=O)N[C@@H](Cc1ccc(O)cc1)C(N)=O)[C@@H](C)O)C(C)C` [Compound 193, N{alpha-4}-(3-methylbutanoyl)-N{epsilon-7}-[2-(2-{2-[2-(2-{2-[(4S)-4-carboxy-4-(17-carboxyheptadecanamido)butanamido]ethoxy}ethoxy)acetamido]ethoxy}ethoxy)acetamido]-[4A,7K,9E,14E,17I,18Q,22V,28Y,30W,31L]hPYY (4-36)], the Ki [1] was 3.81 nM and the “Acute Food Intake 24 h [% vehicle]” value (normal NMRI mice) was 57 % vehicle.
